Values quoted from earlier work, collected in US20090155357A1, “Alcohol Resistant Pharmaceutical Formulations” (priority 2005, published 2009).

How the values were obtained:
[1] = solubility in alcohol
[2] = solubility in water

Molecule | Alcohol [1] | Water [2]
CCCCCCCCCCCCCCCC(=O)OCC(O)CO (stereo not shown) [Glyceryl Palmitate] | I | I
CCCCCCCCCCCCCCCCCC(=O)OCC(O)CO (stereo not shown) [Glyceryl Monostearate] | I | I
[O]=[Mg] [Magnesium Oxide] | I | I
Glyceryl Behanate | I | I
Dibasic/Tribasic calcium phosphate dihydrate | I | I
